# Source: PubChem BioAssay (NCI)
#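 48-hour exposure; five concentrations; linearly interpolated endpoints. Here, GI50 denotes the concentration required for 50% inhibition of growth. TGI denotes the concentration required for complete inhibition of growth.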
# Assays:
# Test in all cases: inhibition of tumour cell growth, NCI panel, 48 h
# NCI-H460 lung = system: NCI-H460 lung
# DU-145 prostate = system: DU-145 prostate
# OVCAR-4 ovarian = system: OVCAR-4 ovarian
# A549 NSCLC = system: A549 NSCLC
# HCT-15 colon = system: HCT-15 colon
# MCF7 breast = system: MCF7 breast
# K-562 leukemia = system: K-562 leukemia
# HL-60(TB) leukemia = system: HL-60(TB) leukemia
# SF-295 CNS = system: SF-295 CNS
# M14 melanoma = system: M14 melanoma
# SF-539 CNS = system: SF-539 CNS
# HS 578T breast = system: HS 578T breast
# RPMI-8226 leukemia = system: RPMI-8226 leukemia
# LOX IMVI melanoma = system: LOX IMVI melanoma
# SK-MEL-5 melanoma = system: SK-MEL-5 melanoma
# HOP-92 NSCLC = system: HOP-92 NSCLC
# BT-549 breast = system: BT-549 breast
# NCI-H226 lung = system: NCI-H226 lung
# 786-0 renal = system: 786-0 renal
# OVCAR-8 ovarian = system: OVCAR-8 ovarian
# SNB-19 CNS = system: SNB-19 CNS
# TK-10 renal = system: TK-10 renal
# UACC-257 melanoma = system: UACC-257 melanoma
# MDA-MB-231 breast = system: MDA-MB-231 breast
# IGROV1 ovarian = system: IGROV1 ovarian
# SN12C renal = system: SN12C renal
# CCRF-CEM leukemia = system: CCRF-CEM leukemia
# PC-3 prostate = system: PC-3 prostate
# SK-MEL-28 melanoma = system: SK-MEL-28 melanoma
# NCI/ADR-RES ovarian = system: NCI/ADR-RES ovarian
# SK-MEL-2 melanoma = system: SK-MEL-2 melanoma
# A498 renal = system: A498 renal
# U251 CNS = system: U251 CNS
# HCC-2998 colon = system: HCC-2998 colon
# RXF 393 renal = system: RXF 393 renal
# ACHN renal = system: ACHN renal
# SR leukemia = system: SR leukemia
# MALME-3M melanoma = system: MALME-3M melanoma
# OVCAR-5 ovarian = system: OVCAR-5 ovarian
# HCT-116 colon = system: HCT-116 colon
# EKVX NSCLC = system: EKVX NSCLC
# OVCAR-3 ovarian = system: OVCAR-3 ovarian
# SF-268 CNS = system: SF-268 CNS
# MDA-MB-435 = system: MDA-MB-435
# T-47D breast = system: T-47D breast
# SK-OV-3 ovarian = system: SK-OV-3 ovarian
# COLO 205 colon = system: COLO 205 colon
# MOLT-4 leukemia = system: MOLT-4 leukemia
# KM12 colon = system: KM12 colon
# HT29 colon = system: HT29 colon
# NCI-H522 lung = system: NCI-H522 lung
# SW-620 colon = system: SW-620 colon
# HOP-62 NSCLC = system: HOP-62 NSCLC
# UO-31 renal = system: UO-31 renal
# UACC-62 melanoma = system: UACC-62 melanoma
# CAKI-1 renal = system: CAKI-1 renal
# SNB-75 CNS = system: SNB-75 CNS
structure (smiles),measurement,setting,value
O=C(Nc1cc(Cl)cc(Cl)c1)Nc1ccc2oc(=O)ccc2c1,GI50,NCI-H460 lung,2.27 µM
same,TGI,NCI-H460 lung,7.39 µM
same,GI50,DU-145 prostate,3.87 µM
same,TGI,DU-145 prostate,13.8 µM
same,GI50,OVCAR-4 ovarian,3.23 µM
same,TGI,OVCAR-4 ovarian,14.1 µM
same,GI50,A549 NSCLC,2.9 µM
same,TGI,A549 NSCLC,12.2 µM
same,GI50,HCT-15 colon,2.69 µM
same,TGI,HCT-15 colon,10.9 µM
same,GI50,MCF7 breast,2.28 µM
same,TGI,MCF7 breast,8.09 µM
same,GI50,K-562 leukemia,2.34 µM
same,TGI,K-562 leukemia,18 µM
same,GI50,HL-60(TB) leukemia,1.27 µM
same,TGI,HL-60(TB) leukemia,4.43 µM
same,GI50,SF-295 CNS,2.34 µM
same,TGI,SF-295 CNS,6.05 µM
same,GI50,M14 melanoma,3.39 µM
same,TGI,M14 melanoma,11.9 µM
same,GI50,SF-539 CNS,2.9 µM
same,TGI,SF-539 CNS,8.98 µM
same,GI50,HS 578T breast,3.14 µM
same,TGI,HS 578T breast,14.5 µM
same,GI50,RPMI-8226 leukemia,1.53 µM
same,TGI,RPMI-8226 leukemia,4.89 µM
same,GI50,LOX IMVI melanoma,2.04 µM
same,TGI,LOX IMVI melanoma,4.66 µM
same,GI50,SK-MEL-5 melanoma,1.66 µM
same,TGI,SK-MEL-5 melanoma,3.11 µM
same,GI50,HOP-92 NSCLC,1.86 µM
same,TGI,HOP-92 NSCLC,5.52 µM
same,GI50,BT-549 breast,2.86 µM
same,TGI,BT-549 breast,9.06 µM
same,GI50,NCI-H226 lung,2.67 µM
same,TGI,NCI-H226 lung,8.81 µM
same,GI50,786-0 renal,3.08 µM
same,TGI,786-0 renal,11.7 µM
same,GI50,OVCAR-8 ovarian,2.73 µM
same,TGI,OVCAR-8 ovarian,11 µM
same,GI50,SNB-19 CNS,3.73 µM
same,TGI,SNB-19 CNS,15.2 µM
same,GI50,TK-10 renal,3.12 µM
same,TGI,TK-10 renal,9.51 µM
same,GI50,UACC-257 melanoma,2.23 µM
same,TGI,UACC-257 melanoma,6.78 µM
same,GI50,MDA-MB-231 breast,2.75 µM
same,TGI,MDA-MB-231 breast,7.87 µM
same,GI50,IGROV1 ovarian,3.28 µM
same,TGI,IGROV1 ovarian,15.1 µM
same,GI50,SN12C renal,2.92 µM
same,TGI,SN12C renal,10.6 µM
same,GI50,CCRF-CEM leukemia,2.3 µM
same,TGI,CCRF-CEM leukemia,7.62 µM
same,GI50,PC-3 prostate,1.9 µM
same,TGI,PC-3 prostate,11 µM
same,GI50,SK-MEL-28 melanoma,3.71 µM
same,TGI,SK-MEL-28 melanoma,13.7 µM
same,GI50,NCI/ADR-RES ovarian,2.47 µM
same,TGI,NCI/ADR-RES ovarian,8.91 µM
same,GI50,SK-MEL-2 melanoma,2.03 µM
same,TGI,SK-MEL-2 melanoma,4.84 µM
same,GI50,A498 renal,2.59 µM
same,TGI,A498 renal,7.07 µM
same,GI50,U251 CNS,2.43 µM
same,TGI,U251 CNS,7.51 µM
same,GI50,HCC-2998 colon,3.24 µM
same,TGI,HCC-2998 colon,11.4 µM
same,GI50,RXF 393 renal,2.57 µM
same,TGI,RXF 393 renal,6.72 µM
same,GI50,ACHN renal,3.3 µM
same,TGI,ACHN renal,11.2 µM
same,GI50,SR leukemia,1.98 µM
same,TGI,SR leukemia,5.82 µM
same,GI50,MALME-3M melanoma,2.64 µM
same,TGI,MALME-3M melanoma,7.42 µM
same,GI50,OVCAR-5 ovarian,3.19 µM
same,TGI,OVCAR-5 ovarian,12.1 µM
same,GI50,HCT-116 colon,2.31 µM
same,TGI,HCT-116 colon,8.7 µM
same,GI50,EKVX NSCLC,2.87 µM
same,TGI,EKVX NSCLC,12.4 µM
same,GI50,OVCAR-3 ovarian,3.24 µM
same,TGI,OVCAR-3 ovarian,13.1 µM
same,GI50,SF-268 CNS,3.91 µM
same,TGI,SF-268 CNS,17.2 µM
same,GI50,MDA-MB-435,2.77 µM
same,TGI,MDA-MB-435,10.2 µM
same,GI50,T-47D breast,1.93 µM
same,TGI,T-47D breast,7.5 µM
same,GI50,SK-OV-3 ovarian,2.24 µM
same,TGI,SK-OV-3 ovarian,5.7 µM
same,GI50,COLO 205 colon,2.19 µM
same,TGI,COLO 205 colon,4.63 µM
same,GI50,MOLT-4 leukemia,2.32 µM
same,TGI,MOLT-4 leukemia,7.31 µM
same,GI50,KM12 colon,3.05 µM
same,TGI,KM12 colon,10.8 µM
same,GI50,HT29 colon,2.59 µM
same,TGI,HT29 colon,9.86 µM
same,GI50,NCI-H522 lung,1.39 µM
same,TGI,NCI-H522 lung,4.01 µM
same,GI50,SW-620 colon,3.5 µM
same,TGI,SW-620 colon,13.5 µM
same,GI50,HOP-62 NSCLC,2.98 µM
same,TGI,HOP-62 NSCLC,9.87 µM
same,GI50,UO-31 renal,1.94 µM
same,TGI,UO-31 renal,7.48 µM
same,GI50,UACC-62 melanoma,2.92 µM
same,TGI,UACC-62 melanoma,12.3 µM
same,GI50,CAKI-1 renal,2.28 µM
same,TGI,CAKI-1 renal,7.49 µM
same,GI50,SNB-75 CNS,2.24 µM
same,TGI,SNB-75 CNS,14 µM
